The record followed here is patent US11246308B2, “Ice-free preservation of large volume tissue samples for viable, functional tissue banking” (TISSUE TESTING TECHNOLOGIES LLC, priority 2016, dated 2022).

Data set [1] has as its system heart valve tissues (pulmonary artery, leaflet and cardiac muscle). Nature of the data set: alamarBlue metabolic activity of heart valve tissues vitrified in 4 mL of solution (FIG. 1). Format: cell-based. The note with it: for leaflet viability: 4 mL; for leaflet viability / tissue viability: p<0.05; for post-vitrification viability: 0.6M sugar in DP6, VS49 and VS55; for tissue viability: trehalose and sucrose supplementation of vitrification formulations (VS49, DP6, VS55), compared with no additive controls, N=6. The method, then: (§1) In the following ice-free cryopreservation formulation supplementation experiments, disaccharides (trehalose and sucrose) are added to various vitrification formulations (VS49, DP6, and VS55) in the amounts shown in FIG. 1 and compared to a solution (without trehalose and/or sucrose) to access the effectiveness at inhibiting ice formation in various tissues.
Data shown in % of control VS55 results performed with the final cryoprotectant concentration added at 4° C., N=6, *p<0.05 by ANOVA or #T-test compared with no additive controls.
In this experiment, addition of either 600 mM trehalose or sucrose to VS49, DP6 and VS55 formulations was compared. The tissues were vitrified in 4 mL of solution. Trehalose supplementation increased leaflet viability in VS49 and VS55. Sucrose supplementation increased leaflet viability in all three formulations. […] This led to plans to test DP6 with sugars more thoroughly in later experiments. Repetitive experiments were performed using sucrose supplemented VS55 and obtained outcomes similar to those for supplemented VS55 shown here.
Bonafide excess heart valves or blood vessels were obtained from animals employed in other IACUC approved research studies or from a food processing plant post-mortem. The tissues were dissected, rinsed and placed in sterile cups with ice-cold tissue culture medium containing antibiotics overnight and then allocated for in vitro studies. The heart valve tissues in FIG. 1 each consisted of a piece of tissue consisting of pulmonary artery, leaflet and cardiac muscle. They were separated and individually assayed for viability using an assay that assesses metabolic activity that is described below.
(§2) Tissues were gradually infiltrated with VS55 consisting of 3.10 M DMSO, 3.10M formamide, and 2.21 M propylene glycol in Euro-Collins solution at 4° C. using methods previously described for blood vessel vitrification, a dilution of VS55 to VS49 or DP6 consisting of 3 M DMSO, 3 M propylene glycol. Precooled dilute vitrification solutions (4° C.) are added in five sequential 15-min steps of increasing concentration on ice. The last cryoprotectant concentration with mNPs was added in a final sixth addition step in either precooled −10° C. or 4° C. full strength vitrification solution and kept in a −10° C. bath for 15 minutes or at 4° C. on ice in plastic tubes. The samples were then cooled in two steps, first rapid cooling to −100° C. by placing in a precooled 2-methylbutane bath at −135° C. and then by transfer to vapor phase nitrogen storage for slower cooling to below −135° C. Finally, the samples were stored below −130° C. in vapor phase nitrogen for at least 24 h before testing.
(§3) Warming was performed by either convection warming or nanowarming. Convection warming is a two-stage process including slow warming to −100° C. and then as rapid as possible warming to melting. The slow warming rate is created by taking the sample to the top of the −135° C. freezer and the […] warming rate is generated by placing the plastic container in the mixture of 30% DMSO/H2O at room temperature. After rewarming, the vitrification solution was removed in a stepwise manner on ice to keep the tissues cold and minimize cytotoxicity due to the presence of residual cryoprotectants.
Metabolic Activity—An alamarBlue™ assay will be used to evaluate the metabolic activity of control and treated tissue samples. Tissues were incubated in 2 ml of DMEM+10% FBS culture medium for one hour to equilibrate followed by the addition of 20% AlamarBlue under standard cell culture conditions for 3 hours. AlamarBlue is a non-toxic fluorometric indicator based on detection of metabolic activity. Fluorescence was measured at an excitation wavelength of 544 nm and an emission wavelength of 590 nm. […] Control and experimental tissues were dried at the end of each experiment, weighed, and results expressed as relative fluorescence units (RFU)/mg tissue dry weight.

Data set [2] is described as follows: visible ice formation during cooling and rewarming, 1st set of experiments. The note with it: for visible ice formation: 0.6M sugar in both DP6 and VS49 formulations; for ice formation during cooling and rewarming: in the presence of the sugar, with nanowarming. The format is physicochemical. The method, then:
as §1, §2, §3

Data set [3] can be described thus: ice formation in VS55 supplemented with sugars stored at −80 C (FIG. 7). The format is physicochemical. The conditions noted are these: for sugar concentrations in VS55 that demonstrated ice (white) formation: 24 hours at −80° C. The method, then: In this experiment 30 mL samples of VS55 with increasing concentrations of sugars were placed in 50 mL plastic tubes and stored in a −80 C mechanical storage freezer for 7 days. The tubes were checked daily for ice formation. […] After one day 0.4 to 0.6M trehalose and 0.5-0.6M sucrose were free of ice, while after 7 days 0.5-0.6M trehalose and 0.6M sucrose groups were free of ice. Lower concentrations of these sugars may still be used for ice-free vitrification but more rapid cooling and warming will be needed because the risk of ice formation will be greater and nanowarming rather than convection warming may be needed. Specifically, FIG. 7 is photograph illustrating the ice formation in VS55 supplemented with sugars at −80° C.: Top left: VS55 with 0-0.6M sucrose at 24 hours; Top right: VS55 with 0-0.6M trehalose at 24 hours. […] Higher concentrations were clear without ice. Bottom left: VS55 with 0-0.6M sucrose at 7 days; and Bottom right: VS55 with 0-0.6M trehalose at 7 days. After a week at −80° C. the highest concentrations of sugars are still free of ice.

Molecules are shown by their SMILES.

Regarding `OC[C@H]1O[C@@](CO)(O[C@H]2O[C@H](CO)[C@@H](O)[C@H](O)[C@H]2O)[C@@H](O)[C@@H]1O` [sucrose], the leaflet viability entry in data set [1] (600 mM sucrose added to all three formulations (VS49, DP6, VS55)) was “increased”. In data set [1], the post-vitrification viability result was “increases” and the tissue viability result was “significant increases”. Further, in data set [2], the visible ice formation entry is “prevents visible ice formation”; the “ice formation during cooling and rewarming” value is “no ice formation”. Further, the “sugar concentrations in VS55 that demonstrated ice (white) formation” value in data set [3] lay within 0 to 0.4 M. For the same compound, the “sugar concentrations in VS55 free of ice” value in data set [3] (after 7 days at −80 C, 30 mL samples) is recorded as 0.6 M.

In the case of `OC[C@H]1O[C@H](O[C@H]2O[C@H](CO)[C@@H](O)[C@H](O)[C@H]2O)[C@H](O)[C@@H](O)[C@@H]1O` [trehalose], in data set [1], the post-vitrification viability result is “increases” and the tissue viability result was “significant increases”. Also, in data set [1] (600 mM trehalose added to VS49 and VS55), the leaflet viability result is reported as “increased”. Besides, in data set [2], the visible ice formation entry is reported as “prevents visible ice formation”; the “ice formation during cooling and rewarming” value was “no ice formation”. For the same compound, the “sugar concentrations in VS55 that demonstrated ice (white) formation” value in data set [3] was 0 to 0.6 M.
